Measured values published in patent publication US10662204B2 (PFIZER INC., priority 2018, dated 2020).

What was measured:
[1] = molecular target: T1, GDP-loaded KRAS (1-169) G12C, C51S, C80L, C118S (Homo sapiens, UniProt P01116, C118S/C51S/C80L/G12C); assay: Mass Spectrometry Reactivity Assay (MSRA): covalent adduct of compound and KRAS G12C, Percent Modification; format: binding; settings: for MSRA (% modification) 10 μM 0.50 hr / MSRA (% modification) 10 μM 0.25 hr: 10 μM compound
T1 construct: GDP-loaded KRAS (1-169) G12C, C51S, C80L, C118S
Outline: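 Covalent labelling is measured by intact mass: deconvoluted modified and unmodified peak intensities yield percent modification. Compound, usually 5 μM or 10 μM final, reacts at room temperature with 5 μM GDP-bound KRAS G12C (1-169, C51S/C80L/C118S) in Hepes pH 7.5/NaCl/glycerol, sampled at 1, 15, 30, 60 min.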

KRAS G12C = KRAS G12C (Homo sapiens, UniProt P01116, G12C); assay: Cell Activity Assay: accumulation of GDP-bound KRAS G12C in MIAPaCa-2 cells (Raf-1 RBD capture, MSD readout); format: cell-based; parameters: endogenous in cells; host or cells: MIAPaCa-2; settings: 6 hours, assay limit is 30.00
Outline: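 IC50 came from a 4-parameter fit of Ras signal normalized between DMSO and full-inhibition controls. Readout: lysate GTP-Ras bound to immobilized Raf-1 RBD, quantified with pan-Ras antibody and MSD electrochemiluminescence. Lysates derived from MIAPaCa-2 cells treated 6 h with serially diluted compound, 0.3% DMSO.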

MSRA (% modification) 5.0 μM 0.25 hr ([1]; 5.0 μM compound) [%]	IC50 (KRAS G12C) [µM]	MSRA (% modification) 10 μM 0.50 hr [1] [%]	MSRA (% modification) 10 μM 0.25 hr [1] [%]	MSRA (% modification) 5.0 μM 0.017 hr ([1]; 5.0 μM compound, 0.017 hr) [%]	Compound
55	0.375				C=CC(=O)N1CCN(c2nc(OC[C@@H]3CCCN3C)nc3c(Oc4c(C)c(F)cc5[nH]ncc45)nccc23)CC1 [Example 04I, 1-[4-(8-[(6-fluoro-5-methyl-1H-indazol-4-yl)oxy]-2-{[(2S)-1-methyl-pyrrolidin-2-yl]methoxy}pyrido [3,4-d]pyrimidin-4-yl)piperazin-1-yl]prop-2-en-1-one]
64	0.989				C=CC(=O)N1CCN(c2nc(OC[C@H]3CCCN3C(C)=O)nc3c(Oc4c(Cl)c(F)cc5[nH]ncc45)nccc23)CC1 [Example 04J, 1-[4-(2-{[(2R)-1-acetylpyrrolidin-2-yl]methoxy}-8-[(5-chloro-6-fluoro-1H-indazol-4-yl)oxy]pyrido[3,4-d]pyrimidin-4-yl)piperazin-1-yl]prop-2-en-1-one]
	29.3	5			C=CC(=O)N1CCN(c2ncnc3c(Nc4c(C)ccc5[nH]ncc45)nccc23)CC1 [Example 05, 1-(4-{8-[(5-methyl-1H-indazol-4-yl)amino]pyrido[3,4-d]pyrimidin-4-yl}piperazin-1-yl)prop-2-en-1-one]
	8.41	12			C=CC(=O)N1CCN(c2ncnc3c(Oc4c(Cl)ccc5[nH]ncc45)nc(C)cc23)CC1 [Example 05A, 1-(4-{8-[(5-chloro-1H-indazol-4-yl)oxy]-6-methylpyrido[3,4-d]pyrimidin-4-yl}piperazin-1-yl)prop-2-en-1-one]
	4.03	15			C=CC(=O)N1CCN(c2nc(N3CC(N(C)C)C3)nc3c(Oc4c(C)ccc5[nH]ncc45)nc(C)cc23)[C@@H](C)C1 [Example 05B, 1-[(3S)-4-{2-[3-(dimethylamino)azetidin-1-yl]-6-methyl-8-[(5-methyl-1H-indazol-4-yl)oxy]pyrido[3,4-d]pyrimidin-4-yl}-3-methylpiperazin-1-yl]prop-2-en-1-one]
	1.29	61			C=CC(=O)N1CCN(c2ncnc3c(Oc4c(Cl)c(C)cc5[nH]ncc45)nc(C)cc23)CC1 [Example 05C, 1-(4-{8-[(5-chloro-6-methyl-1H-indazol-4-yl)oxy]-6-methylpyrido[3,4-d]pyrimidin-4-yl}piperazin-1-yl)prop-2-en-1-one]
	0.559	76	72		C=CC(=O)N1CCN(c2nc(OCCN(C)C)nc3c(Oc4c(Cl)c(C)cc5[nH]ncc45)nccc23)CC1 [Example 05E, 1-(4-{8-[(5-chloro-6-methyl-1H-indazol-4-yl)oxy]-2-[2-(dimethylamino)ethoxy]pyrido[3,4-d]pyrimidin-4-yl}piperazin-1-yl)prop-2-en-1-one]
	28.5	22			C=CC(=O)N1CCN(c2nc(N(C)CCC(=O)N(C)C)nc3c(Oc4c(C)ccc5[nH]ncc45)cccc23)CC1 [Example 05F, N^3-{4-(4-acryloylpiperazin-1-yl)-8-[(5-methyl-1H-indazol-4-yl)oxy]quinazolin-2-yl}-N,N,N^3-trimethyl-β-alaninamide]
80	0.164	82	81		C=CC(=O)N1CCN(c2nc(N3CC(N(C)C)C3)nc3c(Oc4c(Cl)c(F)cc5[nH]ncc45)nc(Cl)cc23)CC1 [Example 05G, 1-(4-{6-chloro-8-[(5-chloro-6-fluoro-1H-indazol-4-yl)oxy]-2-[3-(dimethylamino)azetidin-1-yl]pyrido[3,4-d]pyrimidin-4-yl}piperazin-1-yl)prop-2-en-1-one]
54	0.414		68		C=CC(=O)N1CCN(c2nc(OC[C@@H]3CCOC3)nc3c(Oc4c(Cl)c(F)cc5[nH]ncc45)nccc23)CC1 [Example 05H, 1-(4-{8-[(5-chloro-6-fluoro-1H-indazol-4-yl)oxy]-2-[(3R)-tetrahydrofuran-3-ylmethoxy]pyrido[3,4-d]pyrimidin-4-yl}piperazin-1-yl)prop-2-en-1-one]
70	0.074				C=CC(=O)N1CCN(c2nc(Oc3cccnc3C(C)C)nc3c(Oc4c(Cl)c(F)cc5[nH]ncc45)nccc23)CC1 [Example 05I, 1-[4-(8-[(5-chloro-6-fluoro-1H-indazol-4-yl)oxy]-2-{[2-(propan-2-yl)pyridin-3-yl]oxy}pyrido [3,4-d]pyrimidin-4-yl)piperazin-1-yl]prop-2-en-1-one]
81	1.07				C=CC(=O)N1CCN(c2nc(OCC3CCN(C(C)=O)C3)nc3c(Oc4c(Cl)c(F)cc5[nH]ncc45)nccc23)CC1 (stereo not shown) [Example 05J, 1-(4-{2-[(1-acetylpyrrolidin-3-yl)methoxy]-8-[(5-chloro-6-fluoro-1H-indazol-4-yl)oxy]pyrido[3,4-d]pyrimidin-4-yl}piperazin-1-yl)prop-2-en-1-one]
	29.7	20			C=CC(=O)N1CCN(c2ncnc3c(Oc4cc(O)cc5ccccc45)nccc23)CC1 [Example 06, 1-(4-{8-[(3-Hydroxynaphthalen-1-yl)oxy]pyrido[3,4-d]pyrimidin-4-yl}piperazin-1-yl)prop-2-en-1-one]
	6.75	26			C=CC(=O)N1CCN(c2ncnc3c(Oc4c(Cl)ccc5[nH]ncc45)nccc23)CC1 [Example 06A, 1-(4-{8-[(5-chloro-1H-indazol-4-yl)oxy]pyrido[3,4-d]pyrimidin-4-yl}piperazin-1-yl)prop-2-en-1-one]
	> 30	9			C=CC(=O)N1C[C@H](C)N(c2nc(N3CC(N(C)C)C3)nc3c(Oc4c(C)ccc5[nH]ncc45)nc(C)cc23)C[C@H]1C [Example 06B, 1-[(2R,5S)-4-{2-[3-(Dimethylamino)azetidin-1-yl]-6-methyl-8-[(5-methyl-1H-indazol-4-yl)oxy]pyrido[3,4-d]pyrimidin-4-yl}-2,5-dimethylpiperazin-1-yl]prop-2-en-1-one]
	1.62	53			C=CC(=O)N1CCN(c2ncnc3c(Oc4c(Cl)c(C)cc5[nH]ncc45)cccc23)CC1 [Example 06C, 1-(4-{8-[(5-chloro-6-methyl-1H-indazol-4-yl)oxy]quinazolin-4-yl}piperazin-1-yl)prop-2-en-1-one]
35	0.585	75	70		C=CC(=O)N1CCN(c2nc(OC[C@H]3CCCN3C)nc3c(Oc4c(C)ccc5[nH]ncc45)cccc23)CC1 [Example 06E, 1-[4-(8-[(5-methyl-1H-indazol-4-yl)oxy]-2-{[(2R)-1-methylpyrrolidin-2-yl]methoxy}quinazolin-4-yl)piperazin-1-yl]prop-2-en-1-one]
	3.24	46			C=CC(=O)N1CCN(c2nc(NCCC(=O)N(C)C)nc3c(Oc4c(C)ccc5[nH]ncc45)cccc23)CC1 [Example 06F, N^3-{4-(4-acryloylpiperazin-1-yl)-8-[(5-methyl-1H-indazol-4-yl)oxy]quinazolin-2-yl}-N,N-dimethyl-β-alaninamide]
52	0.064		82	23	C=CC(=O)N1CCN(c2nc(OC[C@@H]3CCCN3C)nc3c(Oc4c(Cl)c(C)cc5[nH]ncc45)nc(Cl)cc23)CC1 [Example 06G, 1-[4-(6-chloro-8-[(5-chloro-6-methyl-1H-indazol-4-yl)oxy]-2-{[(2S)-1-methylpyrrolidin-2-yl]methoxy}pyrido[3,4-d]pyrimidin-4-yl)piperazin-1-yl]prop-2-en-1-one]
48	0.611		60		C=CC(=O)N1CCN(c2nc(OC[C@H]3CCCO3)nc3c(Oc4c(Cl)c(F)cc5[nH]ncc45)nccc23)CC1 [Example 06H, 1-(4-{8-[(5-chloro-6-fluoro-1H-indazol-4-yl)oxy]-2-[(2R)-tetrahydrofuran-2-ylmethoxy]pyrido[3,4-d]pyrimidin-4-yl}piperazin-1-yl)prop-2-en-1-one]
74	0.02				C=CC(=O)N1CCN(c2nc(Oc3cccnc3C3CC3)nc3c(Oc4c(Cl)c(F)cc5[nH]ncc45)nccc23)CC1 [Example 06I, 1-(4-{8-[(5-chloro-6-fluoro-1H-indazol-4-yl)oxy]-2-[(2-cyclo-propyl-pyridin-3-yl)oxy]pyrido [3,4-d]pyrimidin-4-yl}piperazin-1-yl)prop-2-en-1-one]
33	0.638				C=CC(=O)N1CCN(c2nc(N3C[C@@](C)(O)[C@@H]3C)nc3c(Oc4c(Cl)c(F)cc5[nH]ncc45)nccc23)CC1 [Example 06J, 1-(4-{8-[(5-chloro-6-fluoro-1H-indazol-4-yl)oxy]-2-[(2S,3R)-3-hydroxy-2,3-dimethylazetidin-1-yl]pyrido[3,4-d]pyrimidin-4-yl}piperazin-1-yl)prop-2-en-1-one]
	7.15	16			C=CC(=O)N1CCN(c2ncnc3c(Oc4c(CC)ccc5[nH]ncc45)nccc23)CC1 [Example 07A, 1-(4-{8-[(5-ethyl-1H-indazol-4-yl)oxy]pyrido[3,4-d]pyrimidin-4-yl}piperazin-1-yl)prop-2-en-1-one]
